The values below come from US9796733B2, “Imidazo-pyrazine derivatives useful as soluble guanylate cyclase activators” (Merck Sharp & Dohme Corp., priority 2014, dated 2017).

One may read the EC50 as the concentration needed to bring the measured effect to its halfway point. Read a low EC50 as an effect from little substance.

The target in one assay is T1, sGC α1/β1 heterodimer (Homo sapiens, UniProt Q02108+Q02153).
T1 construct: expressed in transfected cells; host or cells: CHO-K1 (clone #7, CHO-K1/sGC)
T1 sequence (Q02108 1-690): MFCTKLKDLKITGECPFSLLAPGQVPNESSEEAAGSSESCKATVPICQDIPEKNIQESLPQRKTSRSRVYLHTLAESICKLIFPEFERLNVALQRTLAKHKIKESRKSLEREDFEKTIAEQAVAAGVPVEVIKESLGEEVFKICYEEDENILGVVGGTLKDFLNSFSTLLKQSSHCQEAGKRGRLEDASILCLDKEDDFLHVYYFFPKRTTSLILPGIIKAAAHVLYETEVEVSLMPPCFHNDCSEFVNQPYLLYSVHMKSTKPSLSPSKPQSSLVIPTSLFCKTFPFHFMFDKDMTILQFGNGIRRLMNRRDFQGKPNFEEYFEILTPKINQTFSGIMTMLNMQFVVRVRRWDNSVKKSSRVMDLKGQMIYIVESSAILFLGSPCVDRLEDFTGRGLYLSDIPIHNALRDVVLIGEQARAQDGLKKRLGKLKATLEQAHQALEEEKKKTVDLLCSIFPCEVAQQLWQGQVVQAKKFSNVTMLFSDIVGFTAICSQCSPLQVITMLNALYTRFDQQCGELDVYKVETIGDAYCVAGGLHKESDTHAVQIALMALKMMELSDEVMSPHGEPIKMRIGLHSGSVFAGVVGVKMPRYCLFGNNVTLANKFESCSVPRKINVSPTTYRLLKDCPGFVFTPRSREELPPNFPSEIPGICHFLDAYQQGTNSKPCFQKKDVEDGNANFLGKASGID
T1 sequence (Q02153 1-619): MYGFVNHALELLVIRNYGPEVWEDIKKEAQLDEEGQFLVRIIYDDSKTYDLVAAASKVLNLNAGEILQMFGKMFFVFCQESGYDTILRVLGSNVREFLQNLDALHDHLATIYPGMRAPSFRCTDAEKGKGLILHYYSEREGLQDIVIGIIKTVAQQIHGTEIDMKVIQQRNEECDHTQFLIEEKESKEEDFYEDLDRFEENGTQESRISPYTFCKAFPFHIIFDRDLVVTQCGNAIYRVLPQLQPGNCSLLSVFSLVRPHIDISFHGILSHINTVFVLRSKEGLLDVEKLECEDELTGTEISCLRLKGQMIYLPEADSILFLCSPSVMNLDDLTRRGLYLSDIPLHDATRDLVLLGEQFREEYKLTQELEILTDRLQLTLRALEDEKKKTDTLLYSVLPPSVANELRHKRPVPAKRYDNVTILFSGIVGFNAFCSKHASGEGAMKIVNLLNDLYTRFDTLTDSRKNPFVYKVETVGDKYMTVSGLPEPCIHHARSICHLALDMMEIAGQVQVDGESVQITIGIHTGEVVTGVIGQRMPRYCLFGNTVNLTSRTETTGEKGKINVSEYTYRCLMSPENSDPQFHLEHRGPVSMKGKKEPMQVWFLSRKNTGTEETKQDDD
Description: Cell-based sGC functional assay (CASA assay): cGMP generation in CHO-K1/sGC cells, HTRF detection. To be noted: for Emax: CHO-K1, percent activation relative to standard Compound A in CHO-K1/sGC cells, read-out: % Act.; for EC50: inflection point (IP) of cGMP generation in CHO-K1/sGC cells, 4P fit, activity expressed as percentage of Compound A. Summed up: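 Stable CHO-K1/sGC cells in EBSS buffer with 5 mM MgCl2, 0.05% BSA and 0.5 mM IBMX were incubated with compound (2.5% DMSO final) ±1 μM DETA-NO for 1 hr at 37° C. cGMP was measured by HTRF. Activation is expressed as % of reference HDA Compound A maximum, with IP and max fold induction from a 4P fit.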
(In general: TR-FRET usually uses a lanthanide donor and a delayed reading to cut background.)

The test system of assay [1] is Spontaneously hypertensive rats (SHR). Nature of the assay: Acute efficacy in spontaneously hypertensive rats (SHR): telemetry blood pressure lowering after a single oral dose. It counts as in vivo, rat. In short, it runs like this:
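Male SHR carrying aortic telemetry implants (14-day recovery) received a single oral gavage of compound or vehicle (10% transcutol/20% Cremophor/70% water). Conscious blood pressure was sampled 30 s every 10 min and averaged hourly; change was taken against the prior-day vehicle baseline, reported as maximum peak SBP decrease at a given PO dose (mpk).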

As for `Nc1nc(-c2cn3ccnc3c(CCCC(F)(F)F)n2)nc2c1C(c1ccc(Cl)cc1)(C1CC1)C(=O)N2` (stereo not drawn) [Example 316B, 4-amino-5-(4-chlorophenyl)-5-cyclopropyl-2-(8-(4,4,4-trifluorobutyl)imidazo[1,2-a]pyrazin-6-yl)-5H-pyrrolo[2,3-d]pyrimidin-6(7H)-one], at sGC α1/β1 heterodimer, the Emax turned out to be 156% and the midpoint of the response, the EC50, lay at 29 nM. For the same compound, the “Maximum peak decrease of systolic blood pressure (SBP) in SHR, Cat.” value (“Maximum peak decrease” for short) in assay [1] (P.O. 0.3 mpk) is given as “B (Category B=SBP in SHRs 20-40 mmHg)”.
As to `Nc1nc(-c2cn3ccnc3c(CCCC(F)(F)F)n2)nc2c1C(c1ccc(F)c(F)c1)(C1CC1)C(=O)N2` (stereo not drawn) [Example 317A, 4-amino-5-cyclopropyl-5-(3,4-difluorophenyl)-2-(8-(4,4,4-trifluorobutyl)imidazo[1,2-a]pyrazin-6-yl)-5H-pyrrolo[2,3-d]pyrimidin-6(7H)-one], at sGC α1/β1 heterodimer, the Emax came to 156% and it took 75 nM to reach a half-maximal effect (EC50). The “Maximum peak decrease” value in assay [1] (P.O. 0.1 mpk) is reported as “B (Category B=SBP in SHRs 20-40 mmHg)”.
With `Nc1nc(-c2cn3ccnc3c(CCC(F)(F)F)n2)nc2c1C(c1ccc(F)c(F)c1)(C1CC1)C(=O)N2` (stereo not drawn) [Example 318A, 4-amino-5-cyclopropyl-5-(3,4-difluorophenyl)-2-(8-(3,3,3-trifluoropropyl)imidazo[1,2-a]pyrazin-6-yl)-5H-pyrrolo[2,3-d]pyrimidin-6(7H)-one], at sGC α1/β1 heterodimer, the Emax was found to be 127% and the EC50 is 2180 nM. For the same compound, the “Maximum peak decrease” value in assay [1] (P.O. 2.0 mpk) is “A (Category A=SBP in SHRs<20 mmHg)”.
Consider `CCCc1nc(-c2nc(N)c3c(n2)NC(=O)C3(c2ccc(Cl)c(F)c2)C2CC2)cn2ccnc12` (stereo not drawn) [Example 327A, 4-amino-5-(4-chloro-3-fluorophenyl)-5-cyclopropyl-2-(8-propylimidazo[1,2-a]pyrazin-6-yl)-5H-pyrrolo[2,3-d]pyrimidin-6(7H)-one], for which, at sGC α1/β1 heterodimer, the Emax came out at 112% and the EC50 worked out at 134 nM. The “Maximum peak decrease” value in assay [1] (P.O. 1.0 mpk) is “A (Category A=SBP in SHRs<20 mmHg)”.
As for `Nc1nc(-c2cn3ccnc3c(CCC(F)(F)F)n2)nc2c1C(c1ccc(OC(F)(F)F)cc1)(C1CC1)C(=O)N2` (stereo not drawn) [Example 328A, 4-amino-5-cyclopropyl-5-(4-(trifluoromethoxy)phenyl)-2-(8-(3,3,3-trifluoropropyl)imidazo[1,2-a]pyrazin-6-yl)-5H-pyrrolo[2,3-d]pyrimidin-6(7H)-one], on sGC α1/β1 heterodimer, the Emax was found to be 106% and the response was half-maximal at 1040 nM (EC50). Also, the “Maximum peak decrease” value in assay [1] (P.O. 3.0 mpk) is “A (Category A=SBP in SHRs<20 mmHg)”.
In the case of `CCCCc1nc(-c2nc(N)c3c(n2)NC(=O)C3(c2ccc(Cl)c(F)c2)C2CC2)cn2ccnc12` (stereo not drawn) [Example 329A, 4-amino-2-(8-butylimidazo[1,2-a]pyrazin-6-yl)-5-(4-chloro-3-fluorophenyl)-5-cyclopropyl-5H-pyrrolo[2,3-d]pyrimidin-6(7H)-one], on sGC α1/β1 heterodimer, the Emax turned out to be 93% and the response was half-maximal at 16 nM (EC50). Also, in assay [1] (P.O. 0.3 mpk), the “Maximum peak decrease” value is “B (Category B=SBP in SHRs 20-40 mmHg)”.
On to `CCCCc1nc(-c2nc(N)c3c(n2)NC(=O)C3(c2ccc(F)c(F)c2)C2CC2)cn2ccnc12` (stereo not drawn) [Example 330A, 4-amino-2-(8-butylimidazo[1,2-a]pyrazin-6-yl)-5-cyclopropyl-5-(3,4-difluorophenyl)-5H-pyrrolo[2,3-d]pyrimidin-6(7H)-one], for which, at sGC α1/β1 heterodimer, the Emax was 142% and the EC50 was determined as 22 nM. Also, in assay [1] (P.O. 0.3 mpk), the “Maximum peak decrease” value is given as “B (Category B=SBP in SHRs 20-40 mmHg)”.
Consider `CCCCc1nc(-c2nc(N)c3c(n2)NC(=O)C3(c2ccc(Cl)cc2)C2CC2)cn2ccnc12` (stereo not drawn) [Example 332B, 4-amino-2-(8-butylimidazo[1,2-a]pyrazin-6-yl)-5-(4-chlorophenyl)-5-cyclopropyl-5H-pyrrolo[2,3-d]pyrimidin-6(7H)-one], for which, at sGC α1/β1 heterodimer, the Emax is 141% and the EC50 is 30 nM. Besides, the “Maximum peak decrease” value in assay [1] (P.O. 0.3 mpk) is “B (Category B=SBP in SHRs 20-40 mmHg)”.
On to `CCCc1nc(-c2nc(N)c3c(n2)NC(=O)C3(c2ccc(F)c(F)c2)C2CC2)cn2ccnc12` (stereo not drawn) [Example 334A, 4-amino-5-cyclopropyl-5-(3,4-difluorophenyl)-2-(8-propylimidazo[1,2-a]pyrazin-6-yl)-5H-pyrrolo[2,3-d]pyrimidin-6(7H)-one], for which, at sGC α1/β1 heterodimer, the Emax came out at 111% and the EC50 was determined as 278 nM. Further, the “Maximum peak decrease” value in assay [1] (P.O. 3.0 mpk) was “A (Category A=SBP in SHRs<20 mmHg)”.
For `CC(C)Cc1nc(-c2nc(N)c3c(n2)NC(=O)C3(c2ccc(F)c(F)c2)C2CC2)cn2ccnc12` (stereo not drawn) [Example 335A, 4-amino-5-cyclopropyl-5-(3,4-difluorophenyl)-2-(8-isobutylimidazo[1,2-a]pyrazin-6-yl)-5H-pyrrolo[2,3-d]pyrimidin-6(7H)-one], on sGC α1/β1 heterodimer, the Emax came out at 140% and a half-maximal effect (EC50) was put at 303 nM. For the same compound, the “Maximum peak decrease” value in assay [1] (P.O. 3.0 mpk) is recorded as “B (Category B=SBP in SHRs 20-40 mmHg)”.
For the compound `CCCCc1nc(-c2nc(N)c3c(n2)NC(=O)C3(c2ccc(Cl)cn2)C2CC2)cn2ccnc12` (stereo not drawn) [Example 336B, 4-amino-2-(8-butylimidazo[1,2-a]pyrazin-6-yl)-5-(5-chloropyridin-2-yl)-5-cyclopropyl-5H-pyrrolo[2,3-d]pyrimidin-6(7H)-one], on sGC α1/β1 heterodimer, the Emax was 131% and the EC50 stood at 22 nM. Also, the “Maximum peak decrease” value in assay [1] (P.O. 0.3 mpk) is “B (Category B=SBP in SHRs 20-40 mmHg)”.
Consider `Nc1nc(-c2cn3ccnc3c(CCC(F)(F)F)n2)nc2c1C(c1ccc(Cl)cc1F)(C1CC1)C(=O)N2` (stereo not drawn) [Example 338A, 4-amino-5-(4-chloro-2-fluorophenyl)-5-cyclopropyl-2-(8-(3,3,3-trifluoropropyl)imidazo[1,2-a]pyrazin-6-yl)-5H-pyrrolo[2,3-d]pyrimidin-6(7H)-one], for which, on sGC α1/β1 heterodimer, the Emax worked out at 158% and the EC50 worked out at 178 nM. The “Maximum peak decrease” value in assay [1] (P.O. 2.0 mpk) is recorded as “B (Category B=SBP in SHRs 20-40 mmHg)”.
As to `Nc1nc(-c2cn3ccnc3c(CCCC(F)(F)F)n2)nc2c1C(c1ccc(Cl)cc1F)(C1CC1)C(=O)N2` (stereo not drawn) [Example 339A, 4-amino-5-(4-chloro-2-fluorophenyl)-5-cyclopropyl-2-(8-(4,4,4-trifluorobutyl)imidazo[1,2-a]pyrazin-6-yl)-5H-pyrrolo[2,3-d]pyrimidin-6(7H)-one], on sGC α1/β1 heterodimer, the Emax was 325% and the EC50 came to 122 nM. The “Maximum peak decrease” value in assay [1] (P.O. 0.3 mpk) is “B (Category B=SBP in SHRs 20-40 mmHg)”.
On to `CCCCc1nc(-c2nc(N)c3c(n2)NC(=O)C3(c2ccc(OC(F)(F)F)cc2)C2CC2)cn2ccnc12` (stereo not drawn) [Example 346A], for which, at sGC α1/β1 heterodimer, the Emax turned out to be 132% and a half-maximal response (EC50) required 65 nM. For the same compound, the “Maximum peak decrease” value in assay [1] (P.O. 1.0 mpk) is “B (Category B=SBP in SHRs 20-40 mmHg)”.
Consider `Nc1nc(-c2cn3ccnc3c(CCCC(F)(F)F)n2)nc2c1C(c1ccc(OC(F)(F)F)cc1)(C1CC1)C(=O)N2` (stereo not drawn) [Example 347A, 4-amino-5-cyclopropyl-2-(8-(4,4,4-trifluorobutyl)imidazo[1,2-a]pyrazin-6-yl)-5-(4-(trifluoromethoxy)phenyl)-5H-pyrrolo[2,3-d]pyrimidin-6(7H)-one], for which, on sGC α1/β1 heterodimer, the Emax is 107% and the EC50 amounted to 131 nM. Besides, the “Maximum peak decrease” value in assay [1] (P.O. 1.0 mpk) was “B (Category B=SBP in SHRs 20-40 mmHg)”.
